Assay [1] deals with T1, ACKR3 (Homo sapiens, UniProt P25106).
T1 construct: expressed in transfected cells; host or cells: HEK293T
As to the kind of experiment: BRET β-arrestin2 recruitment to hACKR3 in HEK293T cells. It is filed as cell-based. To be noted: for EC50: * VUF16840 as inverse agonist, mean ± SD (N), read-out: β-arrestin2 BRET pEC50 (converted). The procedure: For bioluminescence resonance energy transfer (BRET) experiments, several BRET acceptor constructs were used that consist of the pcDEF3 vector with either GRK2 (NCBI: NM_174710.2), β-arrestin1 (NCBI: NM_174243.3), or β-arrestin2 (NCBI: XM_005220181.4) fused at the C-terminus with a SpeI/NotI linker to mVenus (NCBI: KP666136.1), as previously described.[34]
(§1) For 1·10^6 HEK293T cells, a transfection mix consisting of 2 μg plasmid DNA, 12 μg linear PEI in a total volume of 200 μL 150 mM NaCl was made and thoroughly vortexed. The transfection mix was incubated for 15 minutes and consequently added to a cell suspension with a final concentration of 3·10^5 cells/mL. For functional studies this cell suspension was immediately transferred to a poly-L-lysine-coated white 96-well plate, with 3·10^4 cells per well. […] For BRET-based membrane localization experiments, the 2 μg plasmid DNA consisted of ACKR3-NL (0.05 μg), mVenus-CAAX (0.25 μg), and pcDEF3 vector DNA without insert (1.7 μg).
Mean pIC50 values were determined by averaging fitted values from individual experiments. Graphs depict the pooled data of all experiments. Similarly, sigmoidal, ligand-induced concentration-dependent activation or inhibition of the proximity between ACKR3 and the protein of interest was analyzed using GraphPad Prism 8, by fitting a 3-parameter concentration-response model to the data, to determine pEC50/pIC50 values. Mean pEC50 values and pIC50 values were determined by averaging fitted values from individual experiments. Graphs depict the pooled data of all experiments, for which values are normalized, per experiment, to the fold difference compared with basal signal.
In general terms: Bioluminescence resonance energy transfer reports proximity on the nanometre scale.

Assay [2] deals with T1, ACKR3. Description: ACKR3 signaling and trafficking sensor assays summarised together (β-arrestin1, GRK2, Rab5a, clathrin A). It is filed as cell-based. How it is done: as §1
Next, it was explored whether VUF16840 could also affect a number of additional ACKR3 signaling or trafficking events. Both β-arrestin1 and GRK2 are known to be recruited to hACKR3 upon activation,[10]^,[23]^,[45],[46] and phosphorylation of the C-terminus is found to be crucial for ACKR3 internalization and β-arrestin1/2 recruitment,[10]^,[47]^,[48] mediated at least in part by GRK2.[10]^,[47] Additionally, clathrin A is a structural protein involved in the formation of clathrin-coated vesicles mediating receptor packaging and internalization, whereas Rab5a is a protein highly expressed in early endosomes.[32]^,[49] […] Agonist-induced internalization of ACKR3 was further monitored by measuring the interaction between clathrin A and β-arrestin 2 using a NanoBiT-based protein–protein interaction assay (Fig. 5D).
Fig. 5 Inhibition of both constitutive as well as agonist-induced ACKR3 activity by VUF16840. […] The resulting proximity between ACKR3 and β-arrestin1 (A, E), GRK2 (B, F), or Rab5a (C, G) was determined by bioluminescence resonance energy transfer. Furthermore, an interaction between clathrin A and β-arrestin2 was measured by NLuc complementation, as was determined by quantifying the relative light units (D, H). […]

T1 sequence (P25106 whole entry): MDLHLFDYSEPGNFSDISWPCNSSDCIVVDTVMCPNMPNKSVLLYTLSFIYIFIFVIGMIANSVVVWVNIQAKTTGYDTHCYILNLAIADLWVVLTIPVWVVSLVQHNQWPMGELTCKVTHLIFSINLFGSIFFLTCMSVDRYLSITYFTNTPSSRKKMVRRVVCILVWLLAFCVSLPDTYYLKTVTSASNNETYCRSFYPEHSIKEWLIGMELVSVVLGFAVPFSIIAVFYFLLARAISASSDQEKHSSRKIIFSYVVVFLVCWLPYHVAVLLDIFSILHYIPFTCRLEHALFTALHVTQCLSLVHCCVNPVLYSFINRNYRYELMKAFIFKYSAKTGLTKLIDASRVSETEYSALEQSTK

For the molecule `COc1ccccc1CCNC(=O)C1CN(C2CCCCC2)CCC1NC(=O)c1cc(-c2ccc(F)cc2F)on1` (stereo not drawn) [VUF16840], the EC50 was 10 nM at ACKR3 [1] and 1.58 to 10 nM on ACKR3 [2] (inverse agonist, range over all assay setups, read-out: pEC50 values, inhibition of constitutive ACKR3-mediated responses (converted)). The IC50 on ACKR3 [1] (constitutive, no agonist, read-out: IC50, reduction of β-arrestin2 recruitment to hACKR3 (BRET)) is 10 nM; at ACKR3 [1] (versus 100 nM CXCL11, read-out: β-arrestin2 BRET, Inhibition by VUF16840 (pIC50) (converted)), 2 nM; on ACKR3 [1] (versus 100 nM CXCL12, read-out: β-arrestin2 BRET, Inhibition by VUF16840 (pIC50) (converted)), 2.51 nM; on ACKR3 [1] (versus 100 nM VUF15485, read-out: β-arrestin2 BRET, Inhibition by VUF16840 (pIC50) (converted)), 10 nM; on ACKR3 [2] (100 nM VUF15485, range over assays, read-out: pIC50 values, inhibition of VUF15485-responses (converted)), 2 to 50.1 nM.
For the molecule `COc1cc(C(=O)N(CCC2CCCN2C)CC(C)=Cc2ccccc2F)cc(OC)c1OC` (stereo not drawn) [VUF15485, reference compound], the EC50 at ACKR3 [1] is 12.6 nM; on ACKR3 [2] (agonist, range over assays, read-out: pEC50 values, recruitment of β-arrestin1 and GRK2 and translocation toward early endosomes (converted)), 7.94 to 39.8 nM.
